The text below walks through data of patent publication US9883997B2, “Cosmetic compositions with tricyclodecane amides” (Conopco, Inc., priority 2013, dated 2018).

Data set [1] can be described thus: Precursor cosmetic compositions evaluated for crystals content, i.e. solubility of solid agent in the liquid agent (Example 29). The format is physicochemical. On the procedure:
The following precursor cosmetic compositions were prepared and evaluated for crystals content, i.e. solubility of solid agent in the liquid agent.
The composition is heated to a temperature above the melting point of the highest melting compound, then allowed to cool to room temperature. […] In the case of end use cosmetic compositions visualization of the crystals of solid agent was done by comparing a sample with and without tricyclodecane amide and observing the formation of crystals, if any, under the optical microscope fitted with cross-polarizers at a magnification of 10× or higher.

The conditions of data set [2]: solid cosmetic agents, Table 1; cited from earlier work.

With `CC(C)CCC[C@@H](C)[C@H]1CC[C@H]2[C@@H]3CC=C4C[C@@H](O)CC[C@]4(C)[C@H]3CC[C@]12C` [cholesterol], the “Appearance after cooling - observation at 24 hours, except as noted” value in data set [1] (Cholesterol (16%) in OMC (84%), [S]/[L] 0.2, no tricyclodecaneamide, 24 hours) is on record as “crystal + liquid”; in data set [1] (Cholesterol (20%) in conjugated linoleic acid (80%), [S]/[L] 0.2, no tricyclodecaneamide, 24 hours) it was “crystals + liquid”; in data set [1] (Cholesterol (20%) in retinol proprionate (80%), [S]/[L] 0.3, no tricyclodecaneamide, observation at 12 hours), “opaque solid”. In data set [2], the “Log Po/w” value is 9.62.
